Test results as given in ChEMBL document CHEMBL4342419 (Eur J Med Chem, 2019).

Tests used:
[1] = target: T1, 5-hydroxytryptamine receptor 1A (Homo sapiens, UniProt P08908); assay: Antagonist activity at 5-HT1A receptor (unknown origin)
T1 sequence (P08908 whole entry): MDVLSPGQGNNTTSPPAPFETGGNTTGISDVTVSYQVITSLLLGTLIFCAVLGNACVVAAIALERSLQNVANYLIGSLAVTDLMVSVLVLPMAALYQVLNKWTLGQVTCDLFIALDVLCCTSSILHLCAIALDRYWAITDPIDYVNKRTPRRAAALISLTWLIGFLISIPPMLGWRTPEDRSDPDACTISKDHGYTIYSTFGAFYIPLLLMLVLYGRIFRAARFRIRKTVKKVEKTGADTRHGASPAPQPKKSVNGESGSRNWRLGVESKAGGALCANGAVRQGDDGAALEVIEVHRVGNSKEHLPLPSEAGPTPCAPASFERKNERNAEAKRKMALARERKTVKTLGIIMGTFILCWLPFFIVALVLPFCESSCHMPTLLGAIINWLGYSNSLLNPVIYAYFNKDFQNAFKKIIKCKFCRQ

[2] = target: T2, 5-hydroxytryptamine receptor 7 (Homo sapiens, UniProt P34969); assay: biochemical; assay type: cell-based
[3] = target: T2, 5-hydroxytryptamine receptor 7; assay: Antagonist activity at 5-HT7 receptor (unknown origin)
[4] = target: 5-hydroxytryptamine receptor 7 (Rattus norvegicus, UniProt P32305); assay: Displacement of [3H]5-CT from recombinant rat 5-HT7 receptor expressed in HEK293 cells; assay type: cell-based
Sequence of 5-hydroxytryptamine receptor 7 (Rattus norvegicus, UniProt P32305) (P32305 whole entry): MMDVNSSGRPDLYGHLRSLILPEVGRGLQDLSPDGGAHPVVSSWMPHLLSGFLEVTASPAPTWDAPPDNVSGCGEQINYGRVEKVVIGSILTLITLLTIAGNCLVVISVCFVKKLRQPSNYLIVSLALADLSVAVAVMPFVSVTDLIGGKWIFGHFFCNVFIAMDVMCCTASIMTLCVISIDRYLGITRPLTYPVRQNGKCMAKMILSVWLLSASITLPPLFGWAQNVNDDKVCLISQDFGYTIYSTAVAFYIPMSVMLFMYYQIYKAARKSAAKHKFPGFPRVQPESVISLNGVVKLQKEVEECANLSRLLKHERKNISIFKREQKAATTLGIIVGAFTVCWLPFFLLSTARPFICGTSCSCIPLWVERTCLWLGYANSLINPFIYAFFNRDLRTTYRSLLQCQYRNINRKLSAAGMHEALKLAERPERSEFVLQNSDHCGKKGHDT

T2 sequence (P34969 whole entry): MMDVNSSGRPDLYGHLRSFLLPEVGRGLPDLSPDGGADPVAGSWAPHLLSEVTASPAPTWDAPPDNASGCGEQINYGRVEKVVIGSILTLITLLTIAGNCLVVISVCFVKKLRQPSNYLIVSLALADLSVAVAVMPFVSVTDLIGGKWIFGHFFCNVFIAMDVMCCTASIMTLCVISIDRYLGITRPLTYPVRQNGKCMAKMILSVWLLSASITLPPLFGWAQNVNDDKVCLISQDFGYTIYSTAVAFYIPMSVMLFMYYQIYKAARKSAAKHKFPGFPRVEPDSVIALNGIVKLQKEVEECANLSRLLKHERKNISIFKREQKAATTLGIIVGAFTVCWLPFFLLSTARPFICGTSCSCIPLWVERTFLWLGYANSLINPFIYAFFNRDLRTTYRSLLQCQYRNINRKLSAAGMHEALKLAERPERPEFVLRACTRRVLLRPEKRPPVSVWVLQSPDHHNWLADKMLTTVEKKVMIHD

Compound | Ki [1] [nM] | also measured
COc1cccc(OC)c1-c1cccc(CCN(C)C)c1 | 4830 | –
CCN(CC)C(=O)[C@@H]1C=C2c3cccc4[nH]c(Br)c(c34)C[C@H]2N(C)C1 | – | Ki [2]: 31.6 nM
Cc1cccc(S(=O)(=O)N(C)[C@H](C)CCN2CCC(C)CC2)c1 [SB-258719] | > 3000 | –
CNC(=O)Cn1c2c(c3ccccc31)CN(CCCCC13CCCc4cccc(c41)NC3=O)CC2 (stereo not drawn) | 128 | Ki [3]: 3.54 nM
CCOc1ccccc1N1CCN(CCCCC(=O)NCc2nc3cc(F)ccc3c(=O)n2-c2ccccc2)CC1 | – | IC50 [1]: 500 nM
CC(Nc1nc(N)nc(NCCOc2ccccc2)n1)c1ccccc1 (stereo not drawn) | > 100 | Ki [3]: 3 nM
O=C1Cc2ccccc2N1CC/C=C/CCN1CCc2ccccc2C1 | > 1000 | –
Clc1ccc(-c2nn(Cc3ccccc3)c3c2CCNCC3)cc1 [JNJ-18038683 FREE BASE] | 6.5 | Ki [4]: 316 nM
Cc1nn(C)c(C)c1-c1ccc(O)c(CCN(C)C)c1 | > 10000 | –
O=S(=O)(c1ccc2cc[nH]c2c1)N1CCC[C@H]1CCN1CCC(Oc2ccc(Cl)cc2)CC1 | 562 | Ki [3]: 1.99 nM
CCC1(CCCCN2CCN(c3ccc(Cl)cc3)CC2)C(=O)Nc2cc(F)ccc21 (stereo not drawn) | 1610 | –
COc1ccc(S(=O)(=O)NCCCN2CCN(c3ccccc3OC)CC2)cc1 | 272 | –
CC(Nc1nc(N)nc(NCCOc2ccc(F)cc2)n1)c1ccc(F)cc1 (stereo not drawn) | > 100 | –
COc1ccccc1N1CCN(Cc2cn(-c3cccc4ccccc34)c3ccccc23)CC1 | 700 | –
